Here are results for 5 molecules from ChEMBL document CHEMBL6177974, “Synthesis and Pharmacological Characterization of Novel Peripheral Cannabinoid-1 Receptor Blockers Based on a Tricyclic Scaffold” (J Med Chem, 2025).

The source made the active and inactive calls. The rule behind the calls is not given here.

The target in series [1] is Cannabinoid receptor 1 (Mus musculus) (UniProt P47746). The series is described as follows: Antagonist activity at CB1R in C57Bl/6Jhsd mouse cortex membrane assessed as inhibition of [35S]GTPgammaS binding incubated for 1 hr by liquid scintillation counter analysis. The following applies: filed as antagonist. In kind it is functional, cell membranes. In general terms: GTPγS resists hydrolysis and so accumulates on activated G proteins.
Sequence of Cannabinoid receptor 1 (Mus musculus) (P47746 whole entry): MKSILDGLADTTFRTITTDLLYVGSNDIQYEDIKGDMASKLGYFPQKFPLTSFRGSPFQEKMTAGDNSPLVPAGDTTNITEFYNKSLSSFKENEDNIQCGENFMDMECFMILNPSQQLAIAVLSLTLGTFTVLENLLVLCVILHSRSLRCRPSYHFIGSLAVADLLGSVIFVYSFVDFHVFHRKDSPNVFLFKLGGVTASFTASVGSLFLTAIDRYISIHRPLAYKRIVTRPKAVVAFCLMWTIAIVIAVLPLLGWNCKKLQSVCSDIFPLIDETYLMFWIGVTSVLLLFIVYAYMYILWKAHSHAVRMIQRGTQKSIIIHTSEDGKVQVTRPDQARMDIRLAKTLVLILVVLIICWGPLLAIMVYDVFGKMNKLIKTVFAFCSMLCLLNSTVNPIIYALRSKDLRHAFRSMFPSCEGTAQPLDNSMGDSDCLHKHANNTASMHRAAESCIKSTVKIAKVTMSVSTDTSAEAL

Series [2] is described as follows: Stability in SGF at pH 1.2 by HPLC analysis. In kind it is physicochemical. The following applies: simulated gi fluid.
Series [3] concerns Mus musculus. In words: Anti-obese activity in diet-induced obese male C57Bl/6J mouse model assessed as reduction in hypercholesterolemia at 1 mg/kg/day, po treated for 24 days. It is filed as functional, organism-based. The note with it: time 24.0 day.
Series [4] in a line: Mutagenicity in Salmonella typhimurium TA98 incubated for 48 to 72 hrs in presence of liver S9 fraction by mini-Ames test. The following applies: salmonella enterica subsp. enterica serovar typhimurium, time 48-72 hrs. It is filed as toxicity, subcellular. For orientation: In the Ames test, an excess of revertant colonies over the control signals mutagenicity.
Series [5] has as its system Mus musculus. The series is described as follows: Anti-obese activity in diet-induced obese male C57Bl/6J mouse model assessed as reduction in ALP level at 1 mg/kg/day, po treated for 24 days. In kind it is functional, organism-based. The note with it: time 24.0 day.
In series [6] the test system is Mus musculus. In words: Anti-obese activity in diet-induced obese male C57Bl/6J mouse model assessed as increase in lean body mass at 1 mg/kg/day, po treated for 24 days by EchoMRI analysis. In kind it is functional, organism-based. The note with it: time 24.0 day.
Series [7] can be described thus: Mutagenicity in Salmonella typhimurium TA100 incubated for 48 to 72 hrs in presence of liver S9 fraction by mini-Ames test. The following applies: salmonella enterica subsp. enterica serovar typhimurium, time 48-72 hrs. In kind it is toxicity, subcellular.
Series [8] relates to Mus musculus. In words: Anti-obese activity in diet-induced obese male C57Bl/6J mouse model assessed as reduction in glucose level in fasting condition at 1 mg/kg/day, po treated for 24 days. The following applies: time 24.0 day. It is filed as functional, organism-based.
A short description of series [9]: Toxicity in male C57Bl/6J mouse assessed as change in locomotor activity at 1 to 10 mg/kg, po. It is filed as organism-based. The note with it: in vivo, dose 1-10 mg/kg.
Series [10] is described as follows: Protein binding in mouse brain at 1 uM measured after 5 hrs by equilibrium dialysis method. In kind it is ADME, tissue-based. (In general: In equilibrium dialysis free small molecules cross a membrane that holds back macromolecules.)
In series [11] the test system is Mus musculus. The series is described as follows: Anti-obese activity in diet-induced obese male C57Bl/6J mouse model assessed as reversal of hepatocellular damage at 1 mg/kg/day, po treated for 24 days by H and E staining based analysis. The following applies: time 24.0 day. In kind it is functional, organism-based.
Series [12] has as its system Mus musculus. In words: Anti-obese activity in diet-induced obese male C57Bl/6J mouse model assessed as reversal of hepatic steatosis at 1 mg/kg/day, po treated for 24 days by H and E staining based analysis. It is filed as functional, organism-based. The note with it: time 24.0 day.
Series [13] concerns Mus musculus. The series is described as follows: Inhibition of HU-210-induced hypoactivity in male C57Bl/6J mouse at 1 to 10 mg/kg, po. It is filed as functional, organism-based. The note with it: dose 1-10 mg/kg.
Series [14] concerns Mus musculus. The series is described as follows: Anti-obese activity in diet-induced obese male C57Bl/6J mouse model assessed as reduction in ALT level at 1 mg/kg/day, po treated for 24 days. In kind it is functional, organism-based. The note with it: time 24.0 day.
Series [15] has as its system Mus musculus. The series is described as follows: Anti-obese activity in diet-induced obese male C57Bl/6J mouse model assessed as reduction in liver triglyceride content at 1 mg/kg/day, po treated for 24 days. It is filed as functional, organism-based. The following applies: time 24.0 day.
In series [16] the test system is Mus musculus. The series is described as follows: Anti-obese activity in diet-induced obese male C57Bl/6J mouse model assessed as decrease in body weight at 1 mg/kg/day, po treated for 24 days. It is filed as functional, organism-based. The note with it: time 24.0 day.
For series [17], the system named is Mus musculus. The series is described as follows: Anti-obese activity in diet-induced obese male C57Bl/6J mouse model assessed as reduction in hypertriglyceridemia at 1 mg/kg/day, po treated for 24 days. In kind it is functional, organism-based. The following applies: time 24.0 day.
The test system of series [18] is Mus musculus. In words: Anti-obese activity in diet-induced obese male C57Bl/6J mouse model assessed as decrease in total body fat at 1 mg/kg/day, po treated for 24 days by EchoMRI analysis. The note with it: time 24.0 day. It is filed as functional, organism-based.
A short description of series [19]: Toxicity in male C57Bl/6J mouse assessed as CNS-mediated hyperactivity at 1 to 10 mg/kg, po. In kind it is organism-based. The note with it: in vivo, dose 1-10 mg/kg.
Series [20] relates to Mus musculus. In words: Anti-obese activity in diet-induced obese male C57Bl/6J mouse model assessed as reduction in AST level at 1 mg/kg/day, po treated for 24 days. It is filed as functional, organism-based. The note with it: time 24.0 day.
Series [21] can be described thus: Stability in SIF at pH 6.8 by HPLC analysis. It is filed as physicochemical. The note with it: simulated gi fluid.
The subject of series [22] is Mus musculus. In words: Inhibition of WIN55212-induced catalepsy in male C57Bl/6J mouse at 10 mg/kg, po. It is filed as functional, organism-based.
The target of series [23] is Cannabinoid receptor 1 (Mus musculus) (UniProt P47746). The series is described as follows: Inverse agonist activity at CB1R in C57Bl/6Jhsd mouse cortex membrane assessed as inhibition of [35S]GTPgammaS binding incubated for 1 hr by liquid scintillation counter analysis. It is filed as functional, cell membranes. The following applies: filed as inverse agonist.

Regarding `CNC(=O)N[C@H]1CCCOc2c1nn(-c1ccccc1Cl)c2-c1ccc(Cl)cc1`, the Activity entry in [1] is on record as “Active; Compound Exhibited As Neutral Antagonist”.

Turning to `O=S(=O)(N[C@H]1CCCOc2c1nn(-c1ccccc1Cl)c2-c1ccc(Cl)cc1)c1ccc(Cl)cc1`, the Stability entry in [2] and in [21] was “Stable” in each case. For the same molecule, the outcome with Mus musculus [3], with Mus musculus [5], in the series on Mus musculus [6], in the series on Mus musculus [8], in the series with Mus musculus [11] and with Mus musculus [12] was Active. The outcome in the series with Mus musculus [14], with Mus musculus [15], in the series on Mus musculus [16], in the series on Mus musculus [17], in the series with Mus musculus [18] and in the series on Mus musculus [20] was Active. Moreover, the Activity result is reported as “Non-toxic” in [4]; “Non-toxic” in series [7]; “Non-toxic” in series [9]; “Active; Compound Exhibited As Neutral Antagonist” in series [1]; “Non-toxic” in series [19]. Also, in series [10], the PB result is reported as “Active”. Also, the inhibition entry in the series with Mus musculus [13] is “inactive”.

Take `Cc1c(C(=O)NN2CCCCC2)nn(-c2ccc(Cl)cc2Cl)c1-c1ccc(Cl)cc1`: the inhibition result in the series with Mus musculus [22] is “Active”.

For `CS(=O)(=O)N[C@H]1CCCOc2c1nn(-c1ccccc1Cl)c2-c1ccc(Cl)cc1`, the Activity result in series [1] is on record as “Active; Compound Exhibited As Neutral Antagonist”.

On to `Cc1ccc(S(=O)(=O)N[C@H]2CCCOc3c2nn(-c2ccccc2Cl)c3-c2ccc(Cl)cc2)cc1`, for which the result in series [23] was Active.
